Data from patent US7141251B2, “Pharmacologically active strong acid solutions” (Cytorex Biosciences, inc., priority 2001, dated 2006).

Assays:
[1] = in water; cited from earlier work
[2] = Example 27: patient with hypertension; details: 180/110 without medication

Row | Compound | Grade of Ionization (α) [1] | blood pressure [2]
1 | O=C(O)C(=O)O [Formulation H2C2O4, oxalic acid] | α = 1 | –
2 | CC(C)NCC(O)COc1ccc(CC(N)=O)cc1 (stereo not drawn) [Atenolol] | – | 150/90
3 | O=C(O)CC(O)(CC(=O)O)C(=O)O [Formulation H8C6O7, citric acid] | α < 1 | –
